Patent publication US6534640B1, “Methods and compositions to alter the cell surface expression of phosphatidylserine and other clot-promoting plasma membrane phospholipids” (Blood Center Research Foundation, priority 1996, dated 2003)
Entries after “also recorded” stand apart in the source; their conditions may differ.

Columns and labels:
[1] = target: T1, PL scramblase (Homo sapiens, UniProt O15162); details: cited from earlier work
T1 sequence (O15162 1-318): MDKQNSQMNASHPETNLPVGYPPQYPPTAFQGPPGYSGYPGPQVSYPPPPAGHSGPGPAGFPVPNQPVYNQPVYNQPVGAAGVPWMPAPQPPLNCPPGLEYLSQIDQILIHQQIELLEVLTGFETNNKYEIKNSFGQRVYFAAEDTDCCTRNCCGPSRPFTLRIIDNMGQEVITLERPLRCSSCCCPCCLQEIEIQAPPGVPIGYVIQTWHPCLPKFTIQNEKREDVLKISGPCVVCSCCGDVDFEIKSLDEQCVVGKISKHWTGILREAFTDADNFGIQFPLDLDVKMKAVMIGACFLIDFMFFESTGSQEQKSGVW

[2] = tested on: human cell lines (Raji, HL60, Dami, HEL, W9, Jurkat, Molt-4, K562); assay: Measurement of cell surface PS (FVa light chain binding, flow cytometry) in human cell lines after calcium ionophore; assay type: cell-based; details: 2 μM A23187, 1.2 mM free Ca2+
Method: Measurement of cell surface PS. Calcium ionophore-induced exposure of PS on the surface of all cell lines analyzed was detected by the specific binding of coagulation factor Va (light chain) as previously described (P. J. Sims, et al., J. Biol. Chem. 263:18205-18212, 1988; H. Kojima, et al., J. Clin. Invest. 94:2237-2243, 1994). Briefly, cells were washed twice to remove serum proteins and suspended (2×10^6 cells/ml) at 37° C. in RPMI 1640 supplemented with 0.1% BSA, 20 mM HEPES, and adjusted to 1.2 mM free [Ca^2+]. At time=0 A231.87 (0 or 2 μM final concentration) was added from 1 mM stock solution in DMSO, and at times indicated in figure legends, the reaction was stopped by addition of 6 mM EGTA. PS exposed on the cell surface at each time point was detected by incubating (10 minutes, room temperature) 50 μl of the cell suspension with […] FVa, followed by 10 μg/ml anti-FVa, to detect the cell-bound FVa light chain. After staining with 10 μg/ml Tri-Color conjugated goat anti-mouse IgG (CALTAG Laboratories, Burlingame, Calif.), single-cell fluorescence was quantitated by flow cytometry (FL3 channel, FACScan, Becton Dickinson Immunocytometry Systems). Use of Tri-Color conjugate to detect cell-bound FVa enabled simultaneous measurement of cell-associated GFP fluorescence in cell lines transformed with the pEGFP-C2 expression plasmid (fluorescence of GFP detected in FL1 channel). In experiments in which cell lysis was monitored by uptake of propidium iodide, cells were stained for bound FVa with FITC-conjugate of goat anti-mouse IgG (FL1 channel) substituting for Tri-Color conjugate, and propidium iodide was detected in FL3 channel. Propidium iodide (0.5 μg/ml) was added immediately before dilution for flow cytometry.
FIG. 8 depicts western blot analysis of PL scramblase in various human cell lines. Constitutive expression of PL scramblase was analyzed in the human cell lines indicated. […] At times shown (abscissa), EGTA was added and cells analyzed for surface exposed PS as detected by cell-bound FVa light chain (see Materials and Methods). […]

[3] = target: T2, human erythrocyte PL scramblase (Homo sapiens, UniProt O15162); assay: Treatment with hydroxylamine, then reconstitution into proteoliposomes and PL scramblase activity assay (NBD-PC); assay type: biochemical; details: 1 M hydroxylamine, 1 hour, room temperature, neutral pH; assay in 2 mM Ca2+, 3 hours
T2 construct: PL scramblase purified from human erythrocytes; from tissue; host or cells: human erythrocyte ghost membranes
T2 sequence (O15162 1-318): T1 sequence (O15162 1-318)
Method: Treatment with Hydroxylamine. PL scramblase was incubated 1 hour room temperature in 1 M hydroxylamine, 25 mM octylglucoside, 1 M Tris-HCl at pH 7.4. Match control samples of the protein were identically incubated under these conditions, omitting hydroxylamine. After incubation, samples were dialyzed and reconstituted into PL proteoliposomes for assay of PL scramblase activity.
Membrane reconstitution and assay. PL scramblase was reconstituted into proteliposomes and activity determined as previously described(F. Bassé, et al., supra, 1996; J. G. Stout, et al, supra, 1997).
FIG. 11 illustrates inactivation of PL scramblase by hydroxylamine. Purified human erythrocyte PL scramblase was incubated 1 hour, room temperature, in the presence of 50 mM octylglucoside, 1M TrisHCl, and either 0 (control) or 1M (hydroxylamine) hydroxylamine at pH 7.2. Untreated refers to sample maintained in low ionic strength sample buffer at 4° C. . Each sample was then dialyzed and reconstituted into proteoliposomes for assay of PL scramblase activity using NBD-PC as detailed in Bassé, et al., supra, 1996 with modifications of Stout, et al., supra, 1997. Ordinate indicates percent of total NBD-PC flipped during 3 hours. Incubation was in 2 mM Ca^2+, with correction for background measured in 0.1 mM EGTA. The error bars denote mean±SD, n=7. Combined data of three independent experiments performed on different days.

[4] = target: T1, PL scramblase; assay: PL scramblase activity: Ca2+-dependent transbilayer movement of NBD-PC in reconstituted PC/PS proteoliposomes; assay type: biochemical; design: PCR was performed on a full-length clone using the primers; made in house; host or cells: E. coli TB1 (pMAL-C2)
Method: Reconstitution of PL scramblase or scramblase fusion protein into proteoliposomes. Reconstitution and functional activity were performed essentially as previously described (F. Bassé, et al., J. Biol. Chem. 271:17205-17210, 1996; J. G. Stout, et al., J. Clin. Invest. 99:2232-2238, 1997). Briefly, a mixture of PC and PS (9:1 molar ratio) was dried under a stream of nitrogen and resuspended in 100 mM Tris, 100 mM KCl, 0.1 mM EGTA, pH 7.4 (Tris buffer). Protein samples to be reconstituted were added to the liposomes at a final lipid concentration of 4 mg/ml in the presence of 60 mM OG, and dialyzed overnight at 4° C. against 200 vol of Tris buffer containing 1 g/L Bio-Beads SM-2. To liberate PL scramblase from MBP, the proteoliposomes were incubated 3 h at room temperature in the presence of 1/40 (w/w) factor Xa. The digestion was terminated by addition of 100 μM Glu-Gly-Arg chloromethyl ketone. Completeness of the digest was monitored by SDS-PAGE. […]
PL Scramblase activity. Scramblase activity was measured as previously described (F. Bassé, et al., supra, 1996; J. G. Stout, et al., supra, 1997 and in U.S. Ser. No. 08/790,186). […] Proteoliposomes were diluted 25-fold in Tris buffer containing 4 mM EGTA and transferred to a stirred fluorescence cuvet at 23° C. Initial fluorescence was recorded (SLM Aminco 8000 spectrof luorimeter; excitation at 470 nm, emission at 532 nm), 20 mM dithionite was added, and the fluorescence continuously monitored for a total of 120 seconds. The difference in non-quenchable fluorescence observed in presence vs. absence of CaCl2 Was attributed to Ca^2+-induced change in NBD-PC located in the outer leaflet (F. Bassé, et al., supra, 1996; J. G. Stout, et al., supra, 1997; J. C. McIntyre and R.G. Sleight, Biochemistry 30:11819-11827, 1991). Ionized [Ca^2+] was calculated using FreeCal version 4.0 software (generously provided by Dr. Lawrence F. Brass, University of Pennsylvania, Philadelphia, Pa.). […]

[5] = tested on: Raji cells; assay: Prothrombinase assay of transfected Raji cells; assay type: cell-based, human; details: transformed Raji cells, 2 μM A23187, vs clones expressing GFP alone
Method: Prothrombinase Assay. Prothrombinase activity of Raji cells was determined by modification of methods previously described for platelets, using the chromogenic thrombin substrate S2238 (P. J. Sims, et al., supra, 1988). Briefly, 1×10^5 Raji cells (transfected with either pEGFP-C2 or pEGFP-C2-PL scramblase) were suspended in 200 μl HBSS containing 1% BSA in the presence of 2 nM FVa, 1.4 μM prothrombin 2.5 mM CaCl2, and 4 μM dansylarginine-N-(3-ethyl-1,5-pentanediyl)amide (to inhibit feed-back activation by thrombin), and incubated at 37° C. Ca^2+-ionophore A23187 (2 μM), or DMSO (as solvent control) was added, and prothrombin conversion was initiated by addition of 2 nM Fxa. Thrombin generation was stopped after 2 minutes by dilution into 10 mM EGTA and samples were stored on ice. Aliquots were transferred to a 96-well plate, and thrombin generated was assayed in TBS containing 1% BSA in presence of 150 μM S2238 by monitoring time-dependent changes in absorbance at 405 nm using a Thermomax plate reader (Molecular Devices, Sunnyvale, Calif.). Thrombin activity was calculated using purified thrombin as standard.

Molecule: O[C@H](CS)[C@H](O)CS (racemic) [dithiothreitol]
- PL scramblase activity after incubation in reducing agents [1]: retention of normal PL scramblase activity

Molecule: CNc1ccc2oc(C[C@H]3O[C@@]4(CC[C@H]3C)O[C@H]([C@H](C)C(=O)c3ccc[nH]3)[C@H](C)C[C@H]4C)nc2c1C(=O)O [A23187]
- PS mobilized to the cell surface in response to calcium ionophore ([2]; HEL, W9 and Jurkat cells): notably robust responses
- PS mobilized to the cell surface in response to calcium ionophore ([2]; Molt-4 and K562 cells): intermediate responses
- PS mobilized to the cell surface in response to calcium ionophore ([2]; Raji, HL60 and Dami cells): notably unresponsive

Molecule: NO [hydroxylamine]
- PL scramblase activity after incubation with hydroxylamine [3]: near complete loss; also recorded: nearly complete inactivation

B1: recombinant PL scramblase: Recombinant human PL scramblase (SEQ ID NO:2) expressed in E. coli as MBP fusion, liberated by factor Xa (protein, listed as Homo sapiens)
chain: T1 sequence (O15162 1-318)
- PL scramblase activity ([4]; 2 mM CaCl2, mean±SD of three measurements): 11.76±0.44 % of total NBD-PC flipped
- Ca2+-dependent PL scramblase activity (transbilayer movement of NBD-PC) in liposomes ([4]; PC/PS liposomes, absence or presence of 2 mM CaCl2): PL scramblase activity was observed
- specific PL mobilizing activity relative to the endogenous protein purified from the erythrocyte membrane ([4]; expressed and purified from E. coli, reconstituted in proteoliposomes): approximately 50%
- cell capacity to catalyze the prothrombinase reaction upon entry of calcium into the cytosol [5]: increase
